How the values were obtained:
Chk1 = biological target: T1, Chk1 (Homo sapiens, UniProt O14757); assay: In vitro Chk1 autophosphorylation and potentiation of genotoxic agents; type: cell-based
T1 construct: endogenous in cells

[1] = system: HGSOC PDX, OVCAR3, Ep-Myc, MOLM-13, TH-MYC, MDA-MB-231, Renca, LL/2 models; assay: In vivo efficacy of SRA737 as a single agent; design: species or system mouse
Experimental: A program of in vivo efficacy studies was performed to assess the activity of SRA737 in combination with genotoxic chemotherapy and targeted agents, and as monotherapy.
One of these models also carried a MYCN amplification. A fourth HGSOC PDX model with partial resistance to PARPi was also sensitive to high dose SRA737 monotherapy.

human hepatocytes = assay: Stability and metabolites in cryopreserved hepatocytes, human; type: in vitro ADME; conditions: 10 μM, up to 4 hours
Experimental: The formation of SRA737-related metabolites was determined in cryopreserved hepatocytes from human, mouse, rat, dog, minipig and monkey samples after incubation with SRA737 at a nominal concentration of 10 μM for up to 4 hours. […] In the human hepatocyte preparation, approximately 67% of the parent remained after 4 hours of incubation compared to 75% and 7% in the rat and minipig preparations, respectively. Eight human SRA737 metabolites were observed. All SRA737 metabolites formed by human hepatocytes were also formed by monkey hepatocytes. Six metabolites were present at equal or greater abundance in the monkey.

SNU-C1 = assay: Cell viability, colon cancer line SNU-C1; type: cell-based; conditions: Homo sapiens
[2] = system: NSCLC cancer lines (A549, Calu1, Calu6, H1299, H1573, H1944, H1993); assay: Cell viability, NSCLC cancer lines; type: cell-based; conditions: read-out: IC50 range
H69 = assay: Micronuclei assay, H69; type: cell-based, human; conditions: 1 μM, 24 hours or 48 hours
Experimental: H69 cells were cultured as discussed earlier and treated with or without SRA737 (1 μM). Cytochalasin B was added at 20th hour to each culture to give a final concentration of 3 μg/ml and the culture was incubated at 37° C. for up to 24 hrs. After 24 hrs incubation, the cells were centrifuged at 1000 rpm for 5 min. The supernatant was removed and the pellet was treated with weak hypotonic solution (0.075 M KCl/0.9% Saline, 1:9) and incubated at 37° C. for 5 min. After this, the cells were centrifuged and the pellets were fixed in fresh fixative (methanol:acetic acid, 3:1). Cells were dropped onto glass slides were prepared and stained with ProLong® Gold Antifade Mountant with DAPI. In the case of EMT-6 cells, micronuclei formation assays were performed at Phenovista Biosciences, San Diego. The cells were treated with either 1 μM or 5 μM SRA737 for 24h followed by mixing with 4% PFA for 20 minutes at RT directly in the culture wells, washing with PBS and staining with Hoechst (1:1000). The plates were imaged at 40× using the Thermo Fisher Scientific CellInsight CX7 imaging system and the micronuclei algorithm was adjusted to score all nuclei that are <55% of the size of the main nucleus. A total of 25 fields per well were imaged and the data was averaged across 8 replicates.
SRA737 was also evaluated for induced cytogenetic stress using a micronuclei (MN) assay.

T1 sequence (O14757 whole entry, species assumed): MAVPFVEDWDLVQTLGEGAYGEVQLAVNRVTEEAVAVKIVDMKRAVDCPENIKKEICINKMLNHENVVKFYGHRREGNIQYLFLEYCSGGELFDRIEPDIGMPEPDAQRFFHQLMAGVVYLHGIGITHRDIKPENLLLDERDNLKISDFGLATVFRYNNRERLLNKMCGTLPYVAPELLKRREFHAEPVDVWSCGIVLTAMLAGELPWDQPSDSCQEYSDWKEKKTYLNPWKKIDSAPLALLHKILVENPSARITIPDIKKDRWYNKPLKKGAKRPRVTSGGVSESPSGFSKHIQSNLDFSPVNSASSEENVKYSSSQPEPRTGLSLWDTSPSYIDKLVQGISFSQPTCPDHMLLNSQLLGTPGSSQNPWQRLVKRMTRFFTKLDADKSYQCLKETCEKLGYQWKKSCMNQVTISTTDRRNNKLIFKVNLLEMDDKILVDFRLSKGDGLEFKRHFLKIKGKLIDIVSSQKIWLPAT

- human SRA737 metabolites observed (human hepatocytes): Eight
- IC50 (SNU-C1): 1300 nM
- IC50 [2]: ≥ 800 nM
SMILES: N#Cc1cnc(Nc2cc(NCC3CNCCO3)c(C(F)(F)F)cn2)cn1 (stereo not shown) [SRA737, 5-[[4-[[morpholin-2-yl]methylamino]-5-(trifluoromethyl)-2-pyridyl]amino]pyrazine-2-carbonitrile]
- potentiation of the cytotoxicity of genotoxic chemotherapeutic agents and targeted agents (Chk1): dose-dependent potentiation
- sensitivity to high dose monotherapy ([1]; fourth HGSOC PDX model with partial resistance to PARPi): sensitive
- antitumor activity as a single agent ([1]; several HGSOC PDX models with CCNE1 amplifications and TP53 mutations, data not shown): Significant antitumor activity
- micronuclei formation (H69): led to micronuclei formation
